# Patent USRE47493E1, “Substituted bicyclic dihydropyrimidinones and their use as inhibitors of neutrophil elastase activity” (Boehringer Ingelheim International GmbH, priority 2014, dated 2019)
# How the values were obtained:
# [1] = Assay for the Determination of Metabolic Stability with Human Liver Microsomes; type: in vitro ADME; settings: pooled human liver microsomes, 37° C., NADPH; for half-life at 1 nM: pH 7.6, read-out: t1/2 INVITRO
# Procedure: Assay for the Determination of Metabolic Stability with Human Liver Microsomes
# The metabolic degradation of the test compound is assayed at 37° C. with pooled human liver microsomes. The final incubation volume of […] per time point contains TRIS buffer pH 7.6 (0.1 M), magnesium chloride (5 mM), microsomal protein (1 mg/ml) and the test compound at a final concentration of […]. Following a short preincubation period at 37° C., the reactions are initiated by addition of beta-nicotinamide adenine dinucleotide phosphate, reduced form (NADPH, 1 mM) and terminated by transfering an aliquot into acetonitrile after different time points. Additionally, the NADPH-independent degradation is monitored in incubations without NADPH, terminated at the last time point. The rol remaining test compound after NADPH independent incubation is reflected by the parameter c(control) (metabolic stability). The quenched incubations are pelleted by centrifugation (10′000 g, 5 min) An aliquot of the supernatant is assayed by LC-MS/MS for the amount of parent compound.
# The half-life (t1/2 INVITRO) is determined by the slope of the semilogarithmic plot of the concentration-time profile. The intrinsic clearance (CL_[…]) is calculated by considering the amount of protein in the incubation: CL_[…][μl/min/mg protein]=(ln 2/(half-life [min]*protein content [mg/ml]))*1′000.
# The half-life (t1/2 INVITRO) values of selected compounds in the metabolic stability assay described above are listed in Table 15.
# [2] = Assay for Determination of Aqueous Solubility; type: physicochemical; settings: McIlvaine buffer pH 6.8, 2.5% DMSO; for Aqueous solubility: 24 h; for solubility at 24 h: McIlvaine buffer pH 6.8 with 2.5% DMSO, aqueous buffer, kinetic from dmso stock
# Procedure: Assay for Determination of Aqueous Solubility
# The aqueous solubility of a compound is determined by comparing the amount dissolved in aqueous buffer (containing 2.5% DMSO) to the amount dissolved in an acetonitrile/water (1/1) solution. Starting from a 10 mM DMSO stock solution, aliquots are diluted with acetonitrile/water (1/1) and Mcllvaine buffer pH 6.8, respectively. After 24 h of shaking, the solutions or suspensions are filtered and analyzed by LC-UV. The amount dissolved in buffer is compared to the amount dissolved in the acetonitrile/water (1/1) solution. Solubility is measured from 0.001 to 0.125 mg/ml at a DMSO concentration of 2.5%. If more than 90% of the compound is dissolved in buffer, the value is marked with “>”.
# [3] = Assay for the Determination of Metabolic Stability with Human Hepatocytes; type: in vitro ADME; settings: scaled with well stirred model
# Procedure: Assay for the Determination of Metabolic Stability with Human Hepatocytes
# The metabolic degradation of the test compound is assayed in a human hepatocyte suspension. Human hepatocytes (typically cryopreserved) are incubated in an appropriate buffer system (e.g. Dulbecco's modified eagle medium plus 3.5 μg glucagon/500 mL, 2.5 mg insulin/500 mL and 3.75 mg/500 mL hydrocortison) containing 5% species serum. Following a (typically) […] preincubation in an incubator (37° C., 10% CO2), 5 μl of test compound solution (80 μM; from 2 mM stock solution in DMSO diluted 1:25 with medium) are added into 395 μl hepatocyte suspension (cell density in the range 0.25-5*10^6 cells/mL, typically 1*10^6 cells/mL; final concentration of test compound 1 μM, final DMSO concentration […]). The cells are incubated for six hours (incubator, orbital shaker) and samples (25 μl) are taken at 0, 0.5, 1, 2, 4 and 6 hours. Samples are transferred into acetonitrile and pelleted by centrifugation (5 min). The supernatant is transferred to a new 96-deepwell plate, evaporated under nitrogen and resuspended. The decline of parent compound is analyzed by LC-MS/MS.
# The intrinsic clearance CL_[…] is calculated as follows: CL_[…]=Dose/AUC=(C0/CD)/(AUD+clast/k)*1′000/60 (C0: initial concentration in the incubation [μM], CD: cell density of vital cells [10^6 cells/mL], AUD: area under the data [μM*h], clast: concentration of last data point [μM], k: slope of the regression line for parent decline [h^−1])
# The calculated in vitro hepatic intrinsic clearance can be scaled up to the intrinsic in vivo hepatic clearance and used to predict hepatic in vivo blood clearance (CL) by the use of a is liver model (well stirred model): CL_[…]_INVIVO [ml/min/kg]=(CL_[…] [μL/min/10^6 cells]* hepatocellularity[10^6 cells/g liver]*liver factor[g/kg bodyweight])/1′000 CL[ml/min/kg]=CL_[…]_INVIVO [ml/min/kg]*hepatic blood flow [ml/min/kg]/(CL_[…]_INVIVO [ml/min/kg]+hepatic blood flow [ml/min/kg]) Qh[%]=CL[ml/min/kg]/hepatic blood flow[ml/min/kg]) (Hepatocellularity, human: 120*10^6 cells/g liver; lver factor, human: 25.7 g/kg bodyweight; blood flow, human: 21 ml/(min*kg))
# The predicted human hepatic in vivo blood clearance (CL) of selected compounds in the metabolic stability assay described above are listed in Table 16.
# [4] = Assay for Determination of Drug Transport Across Human CACO-2 Cells; type: in vitro ADME; settings: human; for efflux ratio at 2 h, 10 nM: pH 7.2, Caco-2, PEBA/PEAB; for Papp A→B at 10 nM: Caco-2, apical-to-basal, read-out: PEAB; for Papp A→B at 10 nM / Papp B→A at 10 nM: pH 7.2, 37° C.; for Papp B→A at 10 nM: Caco-2, basal-to-apical, read-out: PEBA
# From the text: (§1) Assay for Determination of Drug Transport Across Human CACO-2 Cells
# (§2) The assay provides information on the potential of a compound to pass the cell membrane, on the extent of oral absorption as well as on whether the compound is actively transported by uptake and/or efflux transporters. For the measurement of permeability across polarized, confluent human cancer colon carcinoma cells 2 (Caco-2) cell monolayers grown on permeable filter supports are used as the in vitro absorption model. Apparent permeability coefficients (PE) of the compounds across the Caco-2 monolayers are measured (pH 7.2, 37° C.) in apical-to-basal (AB) (absorptive) and basal-to-apical (BA) (secretory) transport direction. AB permeability (PEAB) represents drug absorption from the intestine into the blood and BA permeability (PEBA) drug secretion from the blood back into the intestine via both passive permeability as well as active transport mechanisms mediated by efflux and uptake transporters that are expressed on the Caco-2 cells. The compounds are assigned to permeability/absorption classes by comparison of the AB permeabilities with the AB permeabilities of reference compounds with known in vitro permeability and oral absorption in the human. Identical or similar permeabilities in both transport directions indicate passive permeation, vectorial permeability points to additional active transport mechanisms. […] Active transport is concentration-dependently saturable.
# (§3) Caco-2 cells (1−2*10^5 cells/cm^2 area) are seeded on filter inserts (Costar transwell polycarbonate or PET filters, […] pore size) and cultured (DMEM) for 10 to 25 days. Compounds are dissolved in appropriate solvent (like DMSO, 1-20 mM stock solutions). Stock solutions are diluted with HTP-4 buffer (128.13 mM NaCl, 5.36 mM KCl, 1 mM MgSO4, 1.8 mM CaCl2, 4.17 mM NaHCO3, 1.19 mM Na2HPO4×7H2O, 0.41 mM NaH2PO4×H2O, 15 mM HEPES, 20 mM glucose, pH 7.2) to prepare the transport solutions (typically […] compound, final DMSO <=0.5%). The transport solution (TL) is applied to the apical or basolateral donor side for measuring A-B or B-A permeability (3 filter replicates), respectively. The receiver side contains HTP-4 buffer supplemented with 2% BSA. Samples are collected at the start and end of experiment from the donor and at various time intervals for up to 2 hours also from the receiver side for concentration measurement by LC-MS/MS or scintillation counting. Sampled receiver volumes are is replaced with fresh receiver solution.
# (§4) The apparent permeability coefficients (PEAB and PEBA) and efflux ratios (PEBA/PEAB) of selected compounds in the Caco-2 drug transport assay described above are listed in Table 17.
# Caco-2 cell monolayers = assay: as above; type: in vitro ADME; settings: for Efflux ratio: Caco-2, PEBA/PEAB; for PEAB: Caco-2, apical-to-basal; for PEAB / PEBA: pH 7.2, 37° C.; for PEBA: Caco-2, basal-to-apical
# From the text: as §1, §2, §3, §4
SMILES,t1/2 INVITRO [1] [h],Aqueous solubility [2] [µg/mL],CL (predicted human hepatic in vivo blood clearance) [3] [mL/min/kg],half-life at 1 nM [1] [h],"efflux ratio at 2 h, 10 nM [4]",Papp A→B at 10 nM [4] [×10⁻⁶ cm/s],Papp B→A at 10 nM [4] [×10⁻⁶ cm/s],solubility at 24 h [2] [µg/mL],Efflux ratio (Caco-2 cell monolayers),PEAB (Caco-2 cell monolayers) [×10⁻⁶ cm/s],PEBA (Caco-2 cell monolayers) [×10⁻⁶ cm/s]
N#Cc1ccc(C2C3=C(CCCC3=O)N(c3cccc(C(F)(F)F)c3)C(=O)N2C(=O)NCCO)cc1 (stereo not drawn) [Example 39.3],>2.17,6,,,,,,,,,
CS(=O)(=O)CCNC(=O)N1C(=O)N(c2cccc(C(F)(F)F)c2)C2=C(C(=O)CCC2)C1c1ccc(C#N)cc1 (stereo not drawn) [Example 39.19],>2.17,9,0,,,,,,,,
"CN1C(=O)N(c2cccc(C(F)(F)F)c2)C2=C(C(=O)CCC2)[C@H]1c1ccc(C#N)cc1S(C)(=O)=O [Example 48, (S)-4-(3-Methyl-2,5-dioxo-1-(3-(trifluoromethyl)phenyl)-1,2,3,4,5,6,7,8-octahydroquinazolin-4-yl)-3-(methylsulfonyl)benzonitrile]",,,3,> 2.17,1.6,60,98,,,,
"CN1C(=O)N(c2ccnc(C(F)(F)F)c2)C2=C(C(=O)CCC2)C1c1ccc(C#N)cc1S(C)(=O)=O (stereo not drawn) [Example 64, 4-(3-Methyl-2,5-dioxo-1-(2-(trifluoromethyl)pyridin-4-yl)-1,2,3,4,5,6,7,8-octahydroquinazolin-4-yl)-3-(methylsulfonyl)benzonitrile]",,,0,> 2.17,4.4,17.1,75.7,8,,,
"CS(=O)(=O)c1cc(C#N)ccc1[C@@H]1C2=C(CCCC2=O)N(c2cccc(C(F)(F)F)c2)C(=O)N1S(C)(=O)=O [Example 68, (S)-3-(Methylsulfonyl)-4-(3-(methylsulfonyl)-2,5-dioxo-1-(3-(trifluoromethyl)phenyl)-1,2,3,4,5,6,7,8-octahydroquinazolin-4-yl)benzonitrile]",,,0,> 2.17,,,,57,,,
"CS(=O)(=O)c1cc(C#N)ccc1[C@@H]1C2=C(CCCC2=O)N(c2cccc(C(F)(F)F)c2)C(=O)N1C(N)=O [Example 75, (S)-4-(4-Cyano-2-(methylsulfonyl)phenyl)-2,5-dioxo-1-(3-(trifluoromethyl)phenyl)-1,2,5,6,7,8-hexahydroquinazoline-3(4H)-carboxamide]",,,,> 2.17,,,,79,,,
CC(C)NC(=O)N1C(=O)N(c2cccc(C(F)(F)F)c2)C2=C(C(=O)CCC2)[C@H]1c1ccc(C#N)cc1S(C)(=O)=O [Example 75.3],>2.17,9,0,,,,,,3.7,22.8,85.3
CS(=O)(=O)c1cc(C#N)ccc1[C@@H]1C2=C(CCCC2=O)N(c2cccc(C(F)(F)F)c2)C(=O)N1C(=O)NCC(F)F [Example 75.7],>2.17,905,0,,,,,,10.8,8.4,90.6
